Source: patent publication US20230236170A1, “REACTIVE AFFINITY PROBE-I[…] PLATFORM” (Jnana Therapeutics Inc., priority 2019, published 2023)

Key:
SLC6A8 = molecular target: T1, SLC6A8 (Homo sapiens, UniProt P48029); experiment: target engagement by mass spectrometry of the adductome (streptavidin enrichment, TMT quantification); format: binding; settings: co-dosing 1 mM β-GPA with 20 μM JN-1724, 30 minutes, 6 minutes 365 nm
T1 construct: host or cells: 'Cells', not specified
T1 sequence (P48029 1-635): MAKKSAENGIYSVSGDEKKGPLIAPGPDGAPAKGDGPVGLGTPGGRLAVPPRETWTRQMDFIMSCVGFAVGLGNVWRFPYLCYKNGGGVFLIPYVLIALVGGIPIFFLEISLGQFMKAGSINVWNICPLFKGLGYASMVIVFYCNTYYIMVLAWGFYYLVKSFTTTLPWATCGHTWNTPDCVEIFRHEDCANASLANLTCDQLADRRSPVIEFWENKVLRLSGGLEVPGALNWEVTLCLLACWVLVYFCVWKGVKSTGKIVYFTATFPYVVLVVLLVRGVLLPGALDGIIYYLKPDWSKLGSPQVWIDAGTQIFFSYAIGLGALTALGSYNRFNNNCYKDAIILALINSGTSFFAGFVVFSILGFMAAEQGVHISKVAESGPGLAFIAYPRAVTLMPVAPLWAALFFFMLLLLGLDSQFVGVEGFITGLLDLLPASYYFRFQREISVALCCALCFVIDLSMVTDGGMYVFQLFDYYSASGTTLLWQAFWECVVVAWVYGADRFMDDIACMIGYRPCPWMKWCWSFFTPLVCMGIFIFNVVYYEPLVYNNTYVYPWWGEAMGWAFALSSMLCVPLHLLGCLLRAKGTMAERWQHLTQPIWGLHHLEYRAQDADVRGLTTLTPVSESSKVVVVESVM
Description: Cells were dosed for 30 minutes with 20 μM JN-1724 with or without 1 mM β-GPA and then irradiated for 6 minutes with 365 nm light. Cells were lysed; biotin was clicked on; and biotinylated proteins were affinity-purified with streptavidin, digested with trypsin, and identified by tandem mass spectrometry with TMT quantification. SLC6A8 (dot pointed at with arrow) was one of the proteins identified and co-dosing with 1 mM β-GPA reduced the level of enrichment by 80%.
A 30 minute 100 μM dose of JN-1724 followed by 6 minutes of cross-linking at 365 nm is enough to inhibit SLC6A8 transport of creatine to 5.7% of normal transport. To confirm target engagement by unbiased mass spectrometry of the adductome, Cells were dosed for 30 minutes with 20 μM JN-1724 with or without 1 mM β-GPA and then irradiated for 6 minutes with 365 nm light. Cells were lysed; biotin was clicked on; and biotinylated proteins were affinity-purified with streptavidin, digested with trypsin, and identified by tandem mass spectrometry with TMT quantification. SLC6A8 (dot pointed at with arrow) was one of the proteins identified and co-dosing with 1 mM β-GPA reduced the level of enrichment by 80% (FIG. 4).

[1] = molecular target: T2, creatine transporter SLC6A8 (Homo sapiens, UniProt P48029); experiment: creatine uptake assay after photo-crosslinking of reactive affinity probe; format: cell-based; settings: 100 μM JN-1724 with or without 1 mM β-GPA, 30 minutes, 6 minutes 365 nm; FIG. 3
T2 construct: host or cells: 'Cells', not specified
T2 sequence (P48029 1-635): T1 sequence (P48029 1-635)
Description: Cells were dosed for 30 minutes with 100 μM JN-1724 with or without 1 mM β-GPA and then irradiated for 6 minutes with 365 nm light. Cells were washed and the residual transport activity of SLC6A8 was measured via a creatine uptake assay.
RAPID identifies orthosteric and allosteric ligands as starting points or probes for target occupancy. The extent of covalent modification of the creatine transporter by a subset of the RAP library is highly reproducible (FIG. 2A). Screen of 2000 RAPs against the creatine transporter SLC6A8±the substrate analog guanidinoproprionic acid (GPA) identifies substrate-sensitive binder (FIG. 2B). Dots that fall off-diagonal are either substrate-competitive or substrate-cooperative. Two RAPs identified from the screen show dose-dependent inhibition or enhancement of covalent modification of the target as a function of the concentration of GPA (FIG. 2C).
A 30 minute 100 μM dose of JN-1724 followed by 6 minutes of cross-linking at 365 nm is enough to inhibit SLC6A8 transport of creatine to 5.7% of normal transport. […] Cells were lysed; biotin was clicked on; and biotinylated proteins were affinity-purified with streptavidin, digested with trypsin, and identified by tandem mass spectrometry with TMT quantification. […]

- reduction of the level of enrichment of SLC6A8 (SLC6A8): 80%
- effect on residual transport activity of SLC6A8 [1]: protection
SMILES: N=C(N)NCCC(=O)O [β-GPA, β-guanidinoproprionic acid]
